20 molecules from patent publication EP0536419B1, “TRICYCLIC TRIAZOLE DERIVATIVES, PRODUCTION AND USE THEREOF” (TORAY INDUSTRIES, INC., priority 1991, dated 1992) can be followed below.

The test system of experiment [1] is passive cutaneous anaphylaxis (PCA). Nature of the experiment: Test for antiallergic action: rat passive cutaneous anaphylaxis (PCA) reaction. The note with it: rats, oral, 50 mg/kg in olive oil, 1 hour before antigen challenge, read-out: Inhibition Rate (%) Anti-PCA. Type of experiment: in vivo. As to the method:
The antiallergic action was evaluated by passive cutaneous anaphylaxis (PCA) test using rats. The test was carried out using Wister male rats having body weights of 150 - 200 g. Physiological saline containing anti-dinitrophenyl group (DNP) mouse IgE monoclonal antibody (commercially available from Seikagaku Kogyo Co., Ltd.) was intracutaneously injected in the skin of the back of each rat. Twenty three hours later, a suspension of the test compound in olive oil was orally administered at a dose of 50 mg/kg to each rat. One hour later, 0.5 ml of physiological saline containing 2 mg/ml of ovalbumin modified with dinitrophenyl hapten and 1% Evans blue were administered to each rat via femoral vein. Thirty minutes later, the rat was killed by cutting the carotid artery. The skin was peeled off and the portion stained in blue was cut out. The cut out portion was minced in […] and the pigment was extracted at 60°C for 48 hours. The minced skin was removed by centrifugation (1500 x g, 10 min.) and the absorbance at 620 nm of the supernatant was measured. Based on a preliminarily prepared calibration curve, the pigment leaked to the topical portion was quantified. As a control, olive oil alone was administered and the ratio of the amount of the pigment in test groups to the amount of the pigment in control group is expressed as inhibition rate.

In another experiment the target is rabbit platelets (Oryctolagus cuniculus, UniProt G1TEI7). Put plainly: in vitro platelet agglutination inhibition test (PAF-induced). Type of experiment: cell-based. The note with it: rabbit platelet-rich plasma, PAF final concentration 10 ng/ml, 37°C; read-out: PAF-Induced Platelet Aggregation IC50 (converted).
Another experiment concerns the target T1, PAF receptor (Oryctolagus cuniculus, UniProt G1TEI7).
T1 construct: Cell membrane fraction of rabbit platelets was prepared; from tissue; host or cells: rabbit platelets (cell membrane fraction)
Nature of the experiment: Binding test using [3H]-PAF (PAF receptor binding test). On the set-up: species or system rabbit. Conditions: rabbit platelet membrane fraction, [3H]-PAF 0.4 nM, 25°C, 60 minutes; read-out: Receptor Binding Inhibition IC50 (converted).

The test system of the next experiment is histamine. Nature of the experiment: Histamine-antagonizing action: histamine-induced skin pigment leakage in rats. Type of experiment: in vivo. The note with it: Rattus norvegicus, oral, 50 mg/kg in olive oil, 1 hour before intracutaneous histamine (50 µl of 900 µM), read-out: Inhibition Rate (%) Antihistamine. As to the method: A suspension of a test compound in olive oil was orally administered at a dose of 50 mg/kg to each rat of the same kind as those used in 1. One hour later, physiological saline containing 1% Evans blue was intravenously administered at a dose of 3 ml/kg. Immediately thereafter, 50 µl of 900 µM histamine solution was intracutaneously administered to each rat. Thirty minutes later, the pigment in the blue-stained portion in the skin was extracted and quantified as mentioned above. Using the amount of the pigment when olive oil was administered as control, the inhibition rate which is the ratio of the amount of the pigment when the test compound was administered to the control was calculated.

Structures can show the parent of a compound that is named as a salt.

T1 sequence (G1TEI7 1-342): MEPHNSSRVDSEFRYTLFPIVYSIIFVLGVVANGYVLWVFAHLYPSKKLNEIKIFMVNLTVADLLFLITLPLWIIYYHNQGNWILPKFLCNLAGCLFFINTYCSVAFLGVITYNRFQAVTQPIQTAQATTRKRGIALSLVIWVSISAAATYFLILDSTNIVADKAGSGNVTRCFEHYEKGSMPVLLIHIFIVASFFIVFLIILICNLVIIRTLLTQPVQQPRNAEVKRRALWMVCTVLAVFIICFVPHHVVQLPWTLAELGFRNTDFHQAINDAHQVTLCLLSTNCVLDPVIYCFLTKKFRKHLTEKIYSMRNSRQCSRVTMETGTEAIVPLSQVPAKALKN
Chain of rabbit platelets (G1TEI7 1-342): as above
Experimental for PAF receptor: Binding Test Using [^3H]-PAF (PAF receptor binding test)
Cell membrane fraction of rabbit platelets was prepared in accordance with the method by Hwang et al (Biochemistry; 22; 4756, (1983)). In 10 mM Tris buffer containing 0.25% bovine serum albumin, 50 mg of this membrane fraction was suspended and tritium-labelled PAF [^3H]-PAF; 0.4 nM) and a test compound were added thereto. After incubating the resulting mixture at 25°C for 60 minutes, the mixture was subjected to filtration through a filter paper made of glass fibers. The filter paper was washed with cold Tris buffer three times and then transferred to a vial. A scintillator was added thereto and the dose of radioactivity was measured with a liquid scintillation counter. The inhibition rate (binding ability) of the test compound was calculated according to the following equation and IC50 values were determined by interpolation. Inhibition Rate (%) = {1 - [((A - B))/((C - B))]} x 100 [formula] (wherein A represents amount bound in the presence of the compound, B represents amount bound by non-specific binding which is the dose of [^3H]-PAF bound radioactivity in the presence of 1 µM of PAF, and C represents total amount bound which is the dose of [^3H]-PAF bound radioactivity.
As a control agent, WEB2086 (Japanese Laid-open Patent Application (Kokai) No. 65-176591) disclosed as a PAF-antagonist was used.
Experimental for rabbit platelets: To determine the PAF-antagonizing property of the compounds, the PAF-induced agglutination of rabbit platelets in vitro is utilized. To obtain platelet-rich plasma (PRP), venous blood is taken from rabbit auricular vein into a plastic centrifugal tube containing 1.0% sodium citrate solution. The ratio of sodium citrate solution to blood is 1:10. The obtained citrate-containing blood is centrifuged at 70 x g (625 rpm) at room temperature for 20 minutes and the PRP in the upper layer is transferred to another plastic tube. The remaining lower layer is further centrifuged at 1500 x g (2800 rpm) for 10 minutes and the platelet poor plasma (PPP) in the upper layer is recovered. The platelet agglutination is measured by using aggregometer commercially available from Niko Bioscience, Inc. An aliquote of the PRP is poured into a cubette for measurement. Immediately thereafter, aspirin, creatinin phosphate and creatinin phosphokinase are added to final concentrations of 0.1 mM, 7 mM and 45 U/ml, respectively. Then a solution of a test compound is added and the resulting mixture is stirred at 37°C for 2 minutes. To the resultant, PAF (final concentration: 10 ng/ml) is added to induce platelet aggregation. The platelet aggregation rate is calculated from the relative maximum value in each aggregation curve taking the transmittance of PPP as the maximum aggregation (100% aggregation). Using the aggregation rate when physiological saline was added as a control, the inhibition rate which was the ratio of the aggregation rate when the test compound was added to the control was calculated and the IC50 values were determined by interpolation.

As for `Cc1nnc2c(=O)n(CCCN3CCC(=C(c4ccccc4)c4ccccc4)CC3)c3ccccc3n12` [Compound 4, 4,5-dihydro-1-methyl-5-[3-[4-(diphenylmethylene)piperidin-1-yl]propyl][1,2,4]triazolo[4,3-a] quinoxalin-4(5H)-one], the results for the inhibition at 50 mg/kg (in experiment [1]; with histamine) were 44% and 76%, respectively. In addition, the IC50 (usually the concentration that gives 50% inhibition) on rabbit platelets is 4080 nM; at PAF receptor, 2040 nM.
For `Cc1nnc2n(CCCN3CCC(C(O)(c4ccc(F)cc4)c4ccc(F)cc4)CC3)c3ccccc3n12` [Compound 199, 3-methyl-9-[3-[4-[hydroxybis(4-fluorophenyl)methyl]piperidin-1-yl]propyl]-9H-[1,2,4]triazolo[4,3-a]benzimidazole fumaric acid salt], the inhibition – broadly, the percentage by which the read-out fell short of the control – at 50 mg/kg in experiment [1] was 48%. Further, the IC50 on rabbit platelets was 190 nM; on PAF receptor it was 55.4 nM.
Consider `Cc1nnc2n1-c1ccccc1N(CCCN1CCC(c3c[nH]c4ccccc34)CC1)C2` [Compound 49, 4,5-dihydro-1-methyl-5-[3-[4-(3-indolyl)piperidine-1-yl]propyl] [1,2,4]triazolo[4,3-a]quinoxaline], for which the inhibition at 50 mg/kg in experiment [1] came to 58%; in the experiment on histamine it was 65%. Besides, at PAF receptor, the IC50 was 3990 nM.
As to `Cc1nnc2n1-c1ccccc1N(CCCN1CCC(C(O)(c3ccc(F)cc3)c3ccc(F)cc3)CC1)C2` [Compound 75, 4,5-dihydro-1-methyl-5-[3-[4-[hydroxybis(4-fluorophenyl)methyl]piperidin-1-yl]propyl][1,2,4]triazolo[4,3-a] quinoxaline tartaric acid salt], the inhibition at 50 mg/kg was 42% in experiment [1] and 19% with histamine. For the same molecule, the figures for the half-maximal inhibitory concentration (IC50) at rabbit platelets and on PAF receptor were 309 nM and 603 nM, respectively.
Regarding `Cc1nnc2n1-c1ccccc1N(CCCN1CCN(C(c3ccc(F)cc3)c3ccc(F)cc3)CC1)C2` [Compound 45, 4,5-dihydro-1-methyl-5-[3-[4-[bis(4-fluorophenyl)methyl]piperazin-1-yl]propyl] [1,2,4]triazolo[4,3-a]quinoxaline], the inhibition at 50 mg/kg was 49% in experiment [1] and 43% in the experiment with histamine. The IC50 at PAF receptor was 622 nM.
Regarding `Cc1nnc2n(CCCN3CCN(C(c4ccccc4)c4ccccc4)CC3)c3ccccc3n12` [Compound 189, 3-methyl-9-[3-[4-(diphenylmethyl)piperazin-1-yl]propyl]-9H-[1,2,4]triazolo[4,3-a]benzimidazole dihydrochloride], the inhibition at 50 mg/kg amounted to 43% in experiment [1] and 57% with histamine. For the same molecule, the IC50 on rabbit platelets was 577 nM; at PAF receptor it was 260 nM.
With `Cc1nnc2n1-c1ccccc1N(CCCN1CCC(=C(c3ccccc3)c3ccc(C(F)(F)F)cc3)CC1)C2` [Compound 151, 4,5-dihydro-1-methyl-5-[3-[4-[[4-(trifluoromethyl)phenyl]phenylmethylene]piperidin-1-yl]propyl] [1,2,4]triazolo[4,3,a]quinoxaline], the 50% inhibitory concentration (IC50) is 1400 nM at rabbit platelets and 110 nM on PAF receptor.
For the molecule `Cc1nnc2n1-c1ccccc1N(CCCN1CCC(=C(c3ccc(Cl)cc3)c3ccc(Cl)cc3)CC1)C2` [Compound 150, 4,5-dihydro-1-methyl-5-[3-[4-[bis(4-chlorophenyl)methylene]piperidin-1-yl]propyl] [1,2,4]triazolo[4,3,a]quinoxaline], the IC50 on rabbit platelets is 937 nM; at PAF receptor, 152 nM.
Regarding `Cc1nnc2n(CCCN3CCC(C(O)(c4ccccc4)c4ccccc4)CC3)c3ccccc3n12` [Compound 198, 3-methyl-9-[3-[4-(hydroxydiphenylmethyl)piperidin-1-yl]propyl]-9H-[1,2,4]triazolo[4,3-a]benzimidazole fumaric acid salt], the IC50 at rabbit platelets is 124 nM; on PAF receptor, 353 nM.
`CCc1nnc2n(CCCN3CCC(c4c[nH]c5ccccc45)CC3)c3ccccc3n12` [Compound 193, 3-ethyl-9-[3-[4-(3-indolyl)piperidin-1-yl]propyl]-9H-[1,2,4]triazolo[4,3-a]benzimidazole fumaric acid salt]: the IC50 on rabbit platelets was 1550 nM; at PAF receptor, 5340 nM.
Take `COc1ccccc1C(=C1CCN(CCCN2Cc3nnc(C)n3-c3ccccc32)CC1)c1ccccc1OC` [Compound 145, 4,5-dihydro-1-methyl-5-[3-[4-[bis(2-methoxyphenyl)methylene]piperidin-1-yl]propyl] [1,2,4]triazolo[4,3,a]quinoxaline]: the IC50 on rabbit platelets is 1700 nM; on PAF receptor it was 411 nM.
On the same counts, the results for `Cc1nnc2n1-c1ccccc1N(CCCN1CCC(=C(c3ccc(F)cc3)c3ccc(F)cc3)CC1)C2` [Compound 77, 4,5-dihydro-1-methyl-5-[3-[4-[bis(4-fluorophenyl)methylene]piperidin-1-yl]propyl][1,2,4]triazolo[4,3-a] quinoxaline] are 141 nM and 190 nM.
In the same order, the values of `CCCc1nnc2n1-c1ccccc1N(CCCN1CCC(c3c[nH]c4ccccc34)CC1)C2` [Compound 53, 4,5-dihydro-1-propyl-5-[3-[4-(3-indolyl)piperidin-1-yl]propyl] [1,2,4]triazolo[4,3-a]quinoxaline] are 3960 nM and 3300 nM.
On the same counts, the results for `Cc1nnc2n1-c1ccccc1N(CCCN1CCC(n3c(=O)[nH]c4ccccc43)CC1)C2` [Compound 81, 4,5-dihydro-1-methyl-5-[3-[4-(2-keto-1-benzimidazolynyl)piperidin-1-yl]propyl][1,2,4]triazolo[4,3-a] quinoxaline] are 1530 nM and 3380 nM.
Consider `Cc1nnc2n1-c1ccccc1N(CCCN1CCC(C(O)(c3ccccc3)c3cccs3)CC1)C2` (stereo not shown) [Compound 129], for which the IC50 on rabbit platelets and on PAF receptor was 340 nM throughout.
As to `COc1cccc(C(=C2CCN(CCCN3Cc4nnc(C)n4-c4ccccc43)CC2)c2ccccc2)c1` [Compound 140, 4,5-dihydro-1-methyl-5-[3-[4-[(3-methoxyphenyl)phenylmethylene]piperidin-1-yl]propyl] [1,2,4]triazolo[4,3,a]quinoxaline], the IC50 was 475 nM at rabbit platelets and 11.9 nM at PAF receptor.
In the case of `Cc1nnc2n1-c1ccccc1N(CCCN1CCC(c3noc4ccccc34)CC1)C2` [Compound 80, 4,5-dihydro-1-methyl-5-[3-[4-(1,2-benzisoxazol-3-yl)piperidin-1-yl]propyl][1,2,4]triazolo[4,3-a] quinoxaline], the concentration for half-maximal inhibition (IC50) was 103 nM on rabbit platelets and 770 nM on PAF receptor.
Consider `Cc1nnc2n1-c1ccccc1N(CCCN1CCN(C(c3ccccc3)c3ccc(Cl)cc3)CC1)CC2` (stereo not shown) [Compound 214, 5,6-dihydro-1-methyl-6-[3-[4-[(4-chlorophenyl)phenylmethyl]piperazin-1-yl]propyl]-4H[1,2,4]triazolo[4,3-a][1,5]benzodiazepine fumaric acid salt], for which the inhibition at 50 mg/kg in experiment [1] was 75%. Also, at rabbit platelets, the IC50 is 6220 nM.
Take `Cc1nnc2n(CCCN3CCC(=C4c5ccccc5C=Cc5ccccc54)CC3)c3ccccc3n12` [Compound 206, 3-methyl-9-[3-[4-(5H-dibenzo[a,d]cyclohepten-5-ylidene)piperidin-1-yl]propyl]-9H-[1,2,4]triazolo[4,3-a]benzimidazole]: the figures for the IC50 on rabbit platelets and at PAF receptor were 4320 nM and 1810 nM, respectively.
On the same counts, the results for `Cc1nnc2n(CCCN3CCC(c4c[nH]c5ccc(Cl)cc45)CC3)c3ccccc3n12` [Compound 195, 3-methyl-9-[3-[4-(5-chloro-3-indolyl)piperidin-1-yl]propyl]-9H-[1,2,4]triazolo[4,3-a] benzimidazole] are 313 nM and 246 nM.
